Laboratory results published in patent US20110212108A1, “NEUREGULIN/ERBB SIGNALING AND INTEGRIN” (THE REGENTS OF THE UNIVERSITY OF CALIFORNIA, priority 2008, published 2011).
Entries after “also recorded” stand apart in the source; their conditions may differ.

T1: CHO cells that express human β3 (β3-CHO) (Homo sapiens, UniProt P05106)
T1 construct: expressed in transfected cells; host or cells: CHO
T1 sequence (P05106 27-788): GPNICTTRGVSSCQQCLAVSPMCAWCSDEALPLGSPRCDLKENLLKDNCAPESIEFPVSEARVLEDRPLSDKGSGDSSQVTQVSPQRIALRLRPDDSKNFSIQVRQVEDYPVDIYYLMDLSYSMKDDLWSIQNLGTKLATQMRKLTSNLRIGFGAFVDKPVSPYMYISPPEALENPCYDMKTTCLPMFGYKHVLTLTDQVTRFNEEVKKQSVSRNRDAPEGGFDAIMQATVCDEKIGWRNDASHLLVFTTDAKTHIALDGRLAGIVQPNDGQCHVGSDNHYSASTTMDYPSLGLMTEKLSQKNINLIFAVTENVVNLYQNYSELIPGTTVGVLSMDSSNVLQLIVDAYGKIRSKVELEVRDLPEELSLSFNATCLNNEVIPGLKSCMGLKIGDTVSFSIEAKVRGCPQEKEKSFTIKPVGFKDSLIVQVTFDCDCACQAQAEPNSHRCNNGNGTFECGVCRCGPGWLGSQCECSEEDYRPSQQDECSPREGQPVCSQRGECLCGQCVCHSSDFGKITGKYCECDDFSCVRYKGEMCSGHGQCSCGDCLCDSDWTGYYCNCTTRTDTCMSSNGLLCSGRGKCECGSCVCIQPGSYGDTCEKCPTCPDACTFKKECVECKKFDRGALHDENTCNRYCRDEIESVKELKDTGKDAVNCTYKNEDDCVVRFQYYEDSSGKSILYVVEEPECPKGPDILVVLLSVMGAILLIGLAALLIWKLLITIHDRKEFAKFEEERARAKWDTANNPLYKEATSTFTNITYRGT


Experiments:
M21 human melanoma cells = experiment: Western blotting of signaling in M21 cells; format: cell-based; conditions: 10 ng/ml; for ERK1/2 activation in M21 cells / ErbB3 phosphorylation in M21 cells: 15 min
Description: FIG. 9. Effect of the 3KE (175-222) mutation on ErbB3 phosphorylation, ERK1/2 activation, and cyclin D1 levels in M21 human melanoma cells. Cells were cultured in DMEM+1% FBS medium for 24 h, and then treated with 3KE or WT NRG1 (175-222) (10 ng/ml, if concentrations were not indicated) for 15 min (if time is not specified). Cell lysates were analyzed by Western blotting.
(§1) Cell proliferation: cells were starved by culturing DMEM with low-level FCS (e.g., 0.4%) overnight and then treated with the wt or mutant NRG1 (175-222) (up to 100 ng/ml). The cells were harvested in 15 min to 6 h after stimulation and cell lysates analyzed by western blotting with antibodies specific to signaling molecules. Alternatively, cells were cultured for 24-48 h after stimulation for testing proliferation or cell viability by MTS assays. Statistical analysis and calculation of kinetic constants were performed using Prism software (Graphpad).
(§2) Signaling: The levels of cell proliferation were measured by MTS assays and the kinetic data were analyzed by using Prism software (Graphpad). Melanoma cells were cultured in the presence of wt or mutant NRG1 (175-222), and the levels of ErbB2 and B3 phosphorylation, MAP kinase activation, or activation of other signaling molecules in the cell lysates were monitored by immunoprecipitating ErbB2 and B3 from the lysates and detecting tyrosine phosphorylation by western blotting with anti-phosphotyrosine antibodies (the IP-Western method) for ErbB2 and B3. Alternatively, anti-phospho ErbB2 or B3 antibodies (commercially available) and anti-phospho ERK1/2 antibodies were used.

B16F10 melanoma cells = experiment: Western blotting of signaling in B16F10 cells; format: cell-based, mouse; conditions: 10 ng/ml
Description: FIG. 11. […] Cells were serum starved and stimulated with 10 ng/ml wt or mutant NRG1 (175-222). Cell lysates were analyzed by western blotting.
as §1, §2

[1] = molecular target: T1, CHO cells that express human β3 (β3-CHO); experiment: Cell adhesion assay, β3-CHO cells; format: cell-based
Description: CHO or K562 cells expressing different recombinant integrins were previously known and available (Zhang et al. 1998; Tarui et al. 2006). Labeling of proteins with FITC or […] was performed according to manufacturers' instructions. Flow cytometry was performed as described above.
Cell adhesion and soluble integrin binding assays were performed as described previously (Mori, et al., 2008). NRG1α (175-241) was immobilized to wells of 96-well microtiter plate overnight at 4° C. in 0.1 M carbonate buffer, pH 2 9.4. Remaining protein binding sites were blocked by incubating with 200 μl of 0.1% BSA in PBS for 60 min at room temperature. Wells were then incubated with soluble integrin αvβ3 in 50 μl in Hepes-Tyrode's buffer supplemented with 1 mM Mn2+ at room temperature for 60 min. After rinsing the wells with the same buffer, bound integrins were determined by horseradish peroxidase (HRP)-conjugated anti-His tag mouse IgG and substrate 3,3′,5,5′-tetramethylbenzidine of HRP.

[2] = molecular target: T2, Recombinant human ErbB3 Fc chimera (Homo sapiens, UniProt P21860); experiment: ELISA-type binding to immobilized recombinant soluble ErbB3; conditions: ErbB3 Fc coated at 1 μg/ml, 1 h room temperature
T2 construct: Recombinant soluble ErbB3 Fc fusion protein was coated onto well of 96-well microtiter plate; purchased R&D Systems
Description: FIG. 20. The 3KE mutant of NRG1α (175-241) binds to ErbB3. a). Binding of the 3KE mutant of NRG1α (175-241) to recombinant ErbB3. Recombinant soluble ErbB3 Fc fusion protein (R&D system) was coated onto wells of 96-well microtiter plate (1 μg/ml). NRG1α (175-241) WT or 3KE (175-241) mutant was added to the wells and incubated for 1 h at room temperature. GST was used as a control. After washing the wells, bound GST NRG1α (175-241) was determined by using anti-GST antibody HRP conjugate. […] Competitive binding assay. Recombinant soluble ErbB3 Fc fusion protein was coated onto well of 96-well microtiter plate (1 μg/ml). Binding of biotin labeled NRG1α (175-241) WT (20 nM) in the presence of increasing concentrations of NRG1α (175-241) WT, 3KE (175-241) or GST. After washing the wells, bound biotin labeled NRG1α (175-241) WT was determined by using streptavidin HRP conjugate.

T2 sequence (P21860 20-643 limits assumed, change not shown): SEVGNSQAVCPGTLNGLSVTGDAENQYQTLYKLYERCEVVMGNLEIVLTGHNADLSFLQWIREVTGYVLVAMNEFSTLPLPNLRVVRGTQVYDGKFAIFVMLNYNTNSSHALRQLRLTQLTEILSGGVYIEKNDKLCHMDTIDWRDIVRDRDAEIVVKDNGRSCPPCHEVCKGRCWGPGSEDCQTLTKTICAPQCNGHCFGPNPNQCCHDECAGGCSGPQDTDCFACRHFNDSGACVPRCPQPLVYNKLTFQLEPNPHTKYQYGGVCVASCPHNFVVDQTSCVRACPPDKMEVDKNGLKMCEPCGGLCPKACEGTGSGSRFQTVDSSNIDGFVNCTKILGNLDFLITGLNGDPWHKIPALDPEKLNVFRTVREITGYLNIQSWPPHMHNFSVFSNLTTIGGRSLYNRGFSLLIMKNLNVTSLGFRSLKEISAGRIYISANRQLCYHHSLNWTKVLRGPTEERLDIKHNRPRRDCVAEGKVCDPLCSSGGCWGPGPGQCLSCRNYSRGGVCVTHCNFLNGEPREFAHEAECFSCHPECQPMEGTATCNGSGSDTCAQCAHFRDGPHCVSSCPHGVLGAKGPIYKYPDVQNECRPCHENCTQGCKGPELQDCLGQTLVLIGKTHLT

Molecule	ERK1/2 activation in M21 cells (M21 human melanoma cells)	ErbB3 phosphorylation in M21 cells (M21 human melanoma cells)	ERK1/2 activation in B16F10 cells (B16F10 melanoma cells)	Adhesion of β3-CHO cells to the immobilized protein [1]	other results
3KE (175-222): NRG1 (175-222) with Lys181/Lys185/Lys187 mutated to Glu; GTSHLVECAEEEETFCVNGGECFMVKDLSNPSRYLCKCQPGFTGARCT (SEQ ID NO:11) (integrin-binding site within human neuregulin, 3KE mutant, short version)	did not induce the level of ERK1/2 activation; also recorded: suppressed ERK1/2 activation	did not induced ErbB3 phosphorylation	did not induce them		cyclin D1 levels in M21 cells (M21 human melanoma cells): suppressed; D1 cyclin levels in B16F10 cells (B16F10 melanoma cells): suppressed D1 cyclin levels very rapidly
wt NRG1 (175-222): wild type human neuregulin 1 fragment, EGF-like domain, residues 175-222 of SEQ ID NO:4 (SEQ ID NO:3) (GTSHLVKCAEKEKTFCVNGGECFMVKDLSNPSRYLCKCQPGFTGARCT; integrin-binding site within human neuregulin 1 EGF-like region and portion of alpha domain, residues 175-222 of human neuregulin 1 alpha) [reference compound]	enhanced the level of ERK1/2 activation	induced ErbB3 phosphorylation	induced	adhered to NRG1 (175-222)	ERK1/2 activation in M21 cells (M21 human melanoma cells; listed as Wt NRG1 (175-222)): induced; AKT activation in B16F10 cells (B16F10 melanoma cells): induced
WT NRG1α (175-241): wild type human neuregulin 1 fragment, residues 175-241 of SEQ ID NO:4 (SEQ ID NO:5), entire EGF-like motif and α domain (protein, integrin-binding site within human neuregulin, residues 175-241of human neuregulin 1alpha, long version) GTSHLVKCAEKEKTFCVNGGECFMVKDLSNPSRYLCKCQPGFTGARCTENVPMKVQNQEKAEELYQK				adhered to NRG1α (175-241)	Binding to immobilized soluble ErbB3 (ELISA-type assay) [2]: bound to immobilized soluble ErbB3 comparably
3KE (175-241): NRG1α (175-241) with Lys181/Lys185/Lys187 mutated to Glu, SEQ ID NO:6 (3KE, long version) (protein, integrin-binding site within human neuregulin, residues 175-241of human neuregulin 1alpha, long version, 3KE mutant) GTSHLVECAEEEETFCVNGGECFMVKDLSNPSRYLCKCQPGFTGARCTENVPMKVQNQEKAEELYQK					Binding to immobilized soluble ErbB3 (ELISA-type assay) ([2]; listed as 3KE mutant NRG1α (175-241)): bound to immobilized soluble ErbB3 comparably; Binding to immobilized soluble ErbB3 (ELISA-type assay) ([2]; listed as 3KE mutant of NRG1α (175-241)): binds to ErbB3 at levels nearly comparable to WT NRG1α (175-241)
